{"source": "patent US12595269B2", "about": "“Morpholine-like monoamine releasers” (Solvonis Therapeutics Ireland Holdings Limited, priority 2022, dated 2026)", "tested_on": "extracellular dopamine (DA), serotonin (5-HT), and noradrenaline (NE) levels in the nucleus accumbens", "assay": "In vivo microdialysis of monoamines in rat nucleus accumbens after intraperitoneal administration", "design": "species or system Sprague Dawley rats", "conditions": "rat NAcc microdialysis, IP", "description": "Methods and Procedure: This study was conducted in compliance with previously described procedures to assure data integrity, adherence to GLP regulations, and standard preclinical study and surgery procedures. The in vivo microdialysis technique was applied to measure the over-time variations of DA, 5-HT, and NE extracellular (EC) concentrations in conscious, freely-moving Sprague Dawley rats. Levels of the neurotransmitters in microdialysis samples were determined using LC-MS/MS analysis. The experiment was also conducted with MDMA, which was used for comparative purposes.\nAs it relates to cannula implantation, the rats were anesthetized with isoflurane 4% in oxygen (2-2.5 L/min), then the isoflurane concentration 2-2.5% was maintained via a nose cone adapted to the stereotaxic apparatus. The rats were treated with meloxicam (0.2 mg/kg, subcutaneously, sc; Meloxidolor) and amoxicilline (150 mg/kg, sc, Betamox LA). The skull was then shaved and disinfected. Rats were then placed in a stereotaxic apparatus for small animals. One vertical guide cannula was inserted through a 1 mm hole drilled on the exposed skull. Coordinates—with respect to bregma—to target specific brain areas, followed indications from stereotaxic atlas of the rat brain. Specifically a guide cannula (MAB 4.12.IC, Agn Tho's AB, Lidingo, Sweden) was inserted in the NAcc (anteroposterior+1.6; lateral −1.6; dorsoventral −6.0). The guide cannula was then secured with dental cement and 2-4 screws. At the end of the surgery the animal was isolated in a single cage during recovery, for a period of at least one week, during which animal health conditions were checked twice daily and the weight recorded twice a week. Animals continued to be housed singly throughout the experiment. One day before the experiment the cannula stylet was removed and a microdialysis probe with a dialyzing length of 2 mm (MAB 4.12.2 Cu, Agn Tho's AB, Lidingo, Sweden) was inserted. Probes can be re-used 2 times for 2 experimental sessions after appropriate cleaning with fresh milliQ water.\nPost-surgery, the rats were maintained in a heating chamber prior to waking up in order to avoid hypothermia that could be caused by anaesthesia. 5 mL of physiologic solution was subcutaneously administered immediately after surgery, and once/day for 2-3 days, if signs of dehydration are noticed. Meloxicam (Meloxidolor) 0.2 mg/kg was again administered subcutaneously the day after surgery as well as after 48h after surgery together with Amoxicilline Long Acting (Betamox LA) 150 mg/kg. Health status and body weight was checked every day during the first week.\nThe animals were treated with test compounds described herein, MDMA, or their vehicle (saline) according to a Latin square design over 5 separate experimental days (one day/week). The treatments were administered in a volume of 1 mL/kg intraperitoneally.\nOn the day of the experiment, each animal was taken into the laboratory in its home cage. Inlet tubing of the probe was attached to a dual quartz-lined two channel liquid swivel mounted on a low mass spring counterbalance arm which, in turn, was connected to a gas-tight syringe on a microinfusion pump. […] An equilibration period of about two hours of perfusion was allowed before collecting samples. Following the equilibration period, 4 basal samples were collected for each experimental animal followed by further 10 post-treatment samples. Samples were collected every 20 minutes (up to 3 hours and 20 minutes post-treatment) by means of a refrigerated auto-sampler (Univentor 820 Microsampler, Agn tho's, Sweden) maintained at +8° C. At the end of all experimental sessions, 2 μL of 0.1% methylene blue solution was injected through the microdialysis probe, animals were euthanized, and their brains removed to confirm the correct probe-position.\nThe concentrations of DA, 5-HT and NE in CSF samples were determined using an optimized method based on LC-MS/MS analysis. […]", "data": [{"compound": "Clc1ccc(C23CNC(CO2)C3)cc1Cl", "note": "(centres unmarked) [522A, 1-(3,4-dichlorophenyl)-2-oxa-5-azabicyclo[2.2.1]heptane]", "values": [{"measurement": "5HT level relative to baseline levels (100%)", "setting": "20 min post-administration", "value": 100, "unit": "%"}, {"measurement": "DA level relative to baseline levels (100%)", "setting": "20 min post-administration", "value": 100, "unit": "%"}, {"measurement": "NE level relative to baseline levels (100%)", "setting": "20 min post-administration", "value": 130, "unit": "%"}, {"measurement": "5HT level relative to baseline levels (100%)", "setting": "40 min post-administration", "value": 380, "unit": "%"}, {"measurement": "DA level relative to baseline levels (100%)", "setting": "40 min post-administration", "value": 160, "unit": "%"}, {"measurement": "NE level relative to baseline levels (100%)", "setting": "40 min post-administration", "value": 150, "unit": "%"}, {"measurement": "5HT level relative to baseline levels (100%)", "setting": "60 min post-administration", "value": 480, "unit": "%"}, {"measurement": "DA level relative to baseline levels (100%)", "setting": "60 min post-administration", "value": 185, "unit": "%"}, {"measurement": "NE level relative to baseline levels (100%)", "setting": "60 min post-administration", "value": 160, "unit": "%"}, {"measurement": "5HT level relative to baseline levels (100%)", "setting": "200 min post-administration", "value": 200, "unit": "%"}, {"measurement": "DA level relative to baseline levels (100%)", "setting": "200 min post-administration", "value": 125, "unit": "%"}, {"measurement": "NE level relative to baseline levels (100%)", "setting": "200 min post-administration", "value": 125, "unit": "%"}]}, {"compound": "CNC(C)Cc1ccc2c(c1)OCO2", "note": "(centres unmarked) [MDMA, reference compound]", "values": [{"measurement": "5HT level relative to baseline levels (100%)", "setting": "20 min post-administration", "value": 130, "unit": "%"}, {"measurement": "DA level relative to baseline levels (100%)", "setting": "20 min post-administration", "value": 120, "unit": "%"}, {"measurement": "NE level relative to baseline levels (100%)", "setting": "20 min post-administration", "value": 120, "unit": "%"}, {"measurement": "5HT level relative to baseline levels (100%)", "setting": "40 min post-administration", "value": 2150, "unit": "%"}, {"measurement": "DA level relative to baseline levels (100%)", "setting": "40 min post-administration", "value": 400, "unit": "%"}, {"measurement": "NE level relative to baseline levels (100%)", "setting": "40 min post-administration", "value": 500, "unit": "%"}, {"measurement": "DA level relative to baseline levels (100%)", "setting": "60 min post-administration", "value": 560, "unit": "%"}, {"measurement": "NE level relative to baseline levels (100%)", "setting": "60 min post-administration", "value": 500, "unit": "%"}, {"measurement": "5HT level relative to baseline levels (100%)", "setting": "200 min post-administration", "value": 900, "unit": "%"}, {"measurement": "DA level relative to baseline levels (100%)", "setting": "200 min post-administration", "value": 300, "unit": "%"}, {"measurement": "NE level relative to baseline levels (100%)", "setting": "200 min post-administration", "value": 300, "unit": "%"}]}]}
